Laboratory results: US12029706B2, “Methods for treating mucopolysaccharidosis” (UNIVERSITY OF MIAMI, priority 2015, dated 2024)
Entries after “also recorded” stand apart in the source; their conditions may differ.

Legend:
[1] = system: α-L-iduronidase (IDUA) mRNA; test: IDUA mRNA expression in MPS I patient cells (normalized to GAPDH); type: cell-based, human; conditions: 48 hours
Protocol: A cell culture experiment was performed in MPS-I patient-derived fibroblast cells. Cells were cultured overnight in a 384-well plate, at a concentration of 20,000 cells per well in advanced DMEM media (Life Technologies) supplemented with 15% FBS (Life technologies), 1× Glutamax (Life Technologies) and beta-mercaptoethanol (1:125000 dilution). The next day, cells were treated with the indicated compound with final concentrations including, but not limited to: 100 μ[…] and 0.12 μM depending on experiment. Treated cells were then incubated for 48 hours at 37° C., 5% CO2, 95% humidity. Cells were then washed with HBSS buffer, and 25 μM of the fluorogenic substrate 4-Methylumbelliferyl α-L-iduronide (free acid) (Santa Cruz Biotechnology) were added in the presence of 0.2M CHNaO2, 0.1% BSA, and 0.1% Triton X. After the addition of the 4-Methylumbelliferyl α-L-iduronide substrate, cells were incubated at 37° C. for 3 to 4 hours, placed at room temperature for 30 minutes to stabilize and alpha-L-iduronidase (IDUA) enzyme activity was measured using the EnVision Multilabel Plate Reader (Perkin Elmer, Inc.). Compounds were purchased from Tocris, Cayman Chemicals or Sigma-Aldrich. Tests were subsequently conducted to determine whether the increase in activity could in-part be attributed to increases in gene expression. […] Resveratrol and Piceatannol were added to patient cells for 48 hours, in the same conditions mentioned above.

alpha-L-iduronidase = alpha-L-iduronidase activity in plasma of treated mice; type: in vivo; conditions: for alpha-L-iduronidase activity in plasma: 25 mg/kg or 50 mg/kg daily, 1 month; for α-iduronidase activity in plasma at 50 mg/kg/day: one month
[2] = system: alpha-L-iduronidase (IDUA); test: IDUA enzyme activity in MPS-I patient-derived fibroblast cells (4-Methylumbelliferyl α-L-iduronide substrate); type: cell-based, human; conditions: compound 48 hours, vs buffer only control, FIG. 1
Protocol: A cell culture experiment was performed in MPS-I patient-derived fibroblast cells. Cells were cultured overnight in a 384-well plate, at a concentration of 20,000 cells per well in advanced DMEM media (Life Technologies) supplemented with 15% FBS (Life technologies), 1× Glutamax (Life Technologies) and beta-mercaptoethanol (1:125000 dilution). The next day, cells were treated with the indicated compound with final concentrations including, but not limited to: 100 μM, 30 μM, 10 μM, 3.3 μM, 1.1 μM, 0.37 μM and 0.12 μM depending on experiment. Treated cells were then incubated for 48 hours at 37° C., 5% CO2, 95% humidity. Cells were then washed with HBSS buffer, and 25 μM of the fluorogenic substrate 4-Methylumbelliferyl α-L-iduronide (free acid) (Santa Cruz Biotechnology) were added in the presence of 0.2M CHNaO2, 0.1% BSA, and 0.1% Triton X. After the addition of the 4-Methylumbelliferyl α-L-iduronide substrate, cells were incubated at 37° C. for 3 to 4 hours, placed at room temperature for 30 minutes to stabilize and alpha-L-iduronidase (IDUA) enzyme activity was measured using the EnVision Multilabel Plate Reader (Perkin Elmer, Inc.). Compounds were purchased from Tocris, Cayman Chemicals or Sigma-Aldrich.

| SMILES | IDUA mRNA level ([1]; FIG. 2, listed as Piceatannol) | IDUA mRNA level ([1]; FIG. 2, listed as piceatannol) | alpha-L-iduronidase activity in plasma (alpha-L-iduronidase; FIG. 3) | alpha-L-iduronidase activity in plasma (alpha-L-iduronidase; FIG. 3, listed as piceatannol) | α-iduronidase activity in plasma at 50 mg/kg/day (alpha-L-iduronidase; FIG. 3) | IDUA enzyme activity [2] | IDUA mRNA level ([1]; FIG. 2, listed as resveratrol) | alpha-L-iduronidase activity in plasma (alpha-L-iduronidase; FIG. 3, listed as resveratrol) |
| --- | --- | --- | --- | --- | --- | --- | --- | --- |
| Oc1cc(O)cc(/C=C/c2ccc(O)c(O)c2)c1 [CTI-101, piceatannol] | increase in IDUA mRNA expression | increased the mRNA level | Increases in alpha-L-iduronidase activity | elevation of α-iduronidase activity | substantial boosts in enzyme activity |  |  |  |
| Oc1ccc(/C=C/c2cc(O)cc(O)c2)cc1 [CTI-102, 3,5,4′-trihydroxystilbene] |  |  | Increases in alpha-L-iduronidase activity |  | substantial boosts in enzyme activity | increase in IDUA activity | increased the mRNA level; also recorded: increase in IDUA mRNA expression | elevation of α-iduronidase activity |
